Data set [1] deals with HeLa. Briefly: Toxicity against human HeLa cells upto 100 uM after 24 hrs by MTT assay. It is filed as cell-based.
For data set [2], the system named is HeLa. Briefly: Cellular uptake in human HeLa cells assessed as drug translocation through nucleolar membrane by time-lapsed confocal microscopy. In kind it is ADME, cell-based.
Data set [3] concerns HeLa. Briefly: Drug penetration in human HeLa cells at 15 to 50 uM by time-lapsed confocal microscopy relative to control. It is filed as ADME, cell-based.

Where a SMILES comes first, the peptide text is derived from it. [ ]: non-standard residue; d: D form. Ahx = NCCCCCC(=O)O

Regarding `NCCCC[C@H](NC(=O)CCCCCNC(=O)CNC(=O)CNC(=O)[C@H](CCCCN)NC(=O)[C@H](CCCCN)NC(=O)[C@H](Cc1cnc[nH]1)NC(=O)[C@H](CS)NC(=O)[C@H](CCC(N)=O)NC(=O)[C@H](CCCCN)NC(=O)[C@@H](N)Cc1ccc(O)cc1)C(=O)N[C@@H](CCCCN)C(=O)NCC(=O)N[C@@H](CO)C(=O)NCC(=O)O` (H-YKQCHKKGG[Ahx]KKGSG-OH), the Activity result is “Non-toxic” with HeLa [1]; “Dose-dependent effect and tde” in the data set with HeLa [2]. Also, the Drug uptake with HeLa [3] is reported as 50%.

Regarding H-GSGKKGGKKICQKY-OH, the Activity entry in the data set with HeLa [1] is recorded as “Non-toxic”.

As for H-GSGKKGGKKHCQKY-OH, in the data set on HeLa [1], the Activity result is reported as “Non-toxic”.

Turning to H-YKQCHKKGGKKGSG-OH, the Activity entry in the data set on HeLa [1] is “Non-toxic”. In the data set with HeLa [3], this compound displayed a Drug uptake of 50%.
